Values joined by “and” are separate entries in the source; they are usually repeats but may differ in a detail not shown here. Identical values can stand only once. Like-named read-outs stand apart in the source and are kept apart here.
Columns and labels:
[1] = system: IL-8 secretion from cystic fibrosis lung epithelial IB3-1 cells
[2] = system: guinea-pig heart Na^+-K^+-ATPase; details: cited from earlier work
[3] = mobile phase: methanol/water 30:70; cited from earlier work
[4] = octanol/water (20 mM TRIS-HCl, pH 7.4), cited from earlier work
[5] = eluent acetonitrile/water 45:55; cited from earlier work
[6] = for 70 kg man; cited from earlier work
[7] = system: human vascular endothelial cells (HUVEC); details: in vitro, read-out: 50% kill concentration; cited from earlier work
[8] = system: HeLa cervical cancer cells; test: cells; details: Homo sapiens, 24 h, read-out: IC50 dose for cell death
[9] = system: HeLa cervical cancer cells; details: human
[10] = read-out: IC50 nmol/L in cells, 50% suppression of spontaneous IL-8 secretion, IB3-1 cells, 48 hours
[11] = Homo sapiens, IB3-1, 48 h, read-out: IC50 nmol/L in cells
[12] = Homo sapiens, IB3-1, 48 h, read-out: IC50 (K50) for spontaneous IL-8 secretion

CC(=O)O[C@H]1CC[C@@]2(C)[C@H](CC[C@@H]3[C@@H]2C[C@@H](OC(C)=O)[C@]2(C)[C@@H](C4=CC(=O)OC4)CC[C@]32O)C1 (single isomer, unassigned; diac) [digoxigenin3,12 diAC, digoxigenin 3,12 diAC]
Activity on IL-8 secretion ([1]; at a concentration of 1000 nM (1 micromolar)): entirely inactive
IC50 [1, 10]: > 1000 nmol/L

CC(=O)O[C@H]1CC[C@]2(C=O)[C@H]3CC[C@]4(C)[C@@H](C5=CC(=O)OC5)CC[C@]4(O)[C@@H]3CC[C@]2(O)C1 [acetylstrophanthdin, acetyl-strophanthidin]
IC50 [1, 10]: 117 nmol/L

C[C@]12CC[C@H](O)C[C@H]1CC[C@@H]1[C@@H]2CC[C@]2(C)[C@@H](C3=CC(=O)OC3)CC[C@]12O [digitoxigenin]
IC50 [1, 11]: 74 nmol/L
ID50 [2]: 1.63 ± 0.06 ×10^−4 mol l^−1
RM values (lipophilicity, reversed-phase thin layer chromatography) [3]: 1.03
P (partition coefficient in octanol/water system) [4]: 270.0 ± 94.1
K retentions for reversed-phase high pressure liquid chromatography [5]: 1.81

C[C@]12CC[C@H](O)C[C@H]1CC[C@@H]1[C@@H]2C[C@@H](O)[C@]2(C)[C@@H](C3=CC(=O)OC3)CC[C@]12O [digoxigenin]
IC50 [1, 11]: 34 nmol/L
P (partition coefficient in octanol/water system) [4]: 13.5 ± 2.3

C[C@H]1O[C@@H](O[C@H]2[C@@H](O)C[C@H](O[C@H]3[C@@H](O)C[C@H](O[C@H]4CC[C@@]5(C)[C@H](CC[C@@H]6[C@@H]5C[C@@H](O)[C@]5(C)[C@@H](C7=CC(=O)OC7)CC[C@]65O)C4)O[C@@H]3C)O[C@@H]2C)C[C@H](O)[C@@H]1O [digoxin]
IC50 [1, 11]: 27 nmol/L
IC50 [1, 12]: ~27 nmol/L
Human toxicity limit [6]: 1900 nmol
Human toxicity limit, Nmol/L = nM [6]: 27.1 nM
ID50 [2]: 0.90 ± 0.07 ×10^−4 mol l^−1
RM values (lipophilicity, reversed-phase thin layer chromatography) [3]: 0.25
IC50 [7]: ~210 nM
K retentions for reversed-phase high pressure liquid chromatography [5]: 0.50

CO[C@H]1C[C@H](O[C@H]2CC[C@]3(C=O)[C@H]4CC[C@]5(C)[C@@H](C6=CC(=O)OC6)CC[C@]5(O)[C@@H]4CC[C@]3(O)C2)O[C@H](C)[C@H]1O[C@@H]1O[C@H](CO[C@@H]2O[C@H](CO)[C@@H](O)[C@H](O)[C@H]2O)[C@@H](O)[C@H](O)[C@H]1O [k-Strophanthin-γ]
ID50 [2]: 2.47 ± 0.25 ×10^−4 mol l^−1
RM values (lipophilicity, reversed-phase thin layer chromatography) [3]: −0.62
P (partition coefficient in octanol/water system) [4]: 0.15 ± 0.07
K retentions for reversed-phase high pressure liquid chromatography [5]: 0.21

CO[C@H]1C[C@H](O[C@H]2CC[C@@]3(C)[C@H](CC[C@@H]4[C@@H]3CC[C@]3(C)[C@@H](C5=CC(=O)OC5)[C@@H](OC(C)=O)C[C@]43O)C2)O[C@@H](C)[C@@H]1O [oleandrin]
IC50 [1, 11]: 2 nmol/L
IC50 [1, 12]: ~2 nmol/L
IC50 [8]: ~100 nM
Threshold concentration for an increase in cell death [9]: ca. 30 nM

C[C@@H]1O[C@@H](O[C@H]2C[C@@H](O)[C@]3(CO)[C@H]4[C@H](O)C[C@]5(C)[C@@H](C6=CC(=O)OC6)CC[C@]5(O)[C@@H]4CC[C@]3(O)C2)[C@H](O)[C@H](O)[C@H]1O [ouabain]
IC50 [1, 11]: 8 nmol/L
Human toxicity limit [6]: 1683 nmol
ID50 [2]: 2.28 ± 0.10 ×10^−4 mol l^−1
IC50 [8]: ~200 nM
RM values (lipophilicity, reversed-phase thin layer chromatography) [3]: −0.73
P (partition coefficient in octanol/water system) [4]: 0.02 and 0.02 ± 0.00
IC50 [7]: 240 nM and 357 nM and ~240 nM and ~357 nM
K retentions for reversed-phase high pressure liquid chromatography [5]: 0.14
Threshold concentration for an increase in cell death [9]: ca. 50 nM

COC1C(O)CC(OC2C(O)CC(OC3C(O)CC(OC4CCC5(C)C(CCC6C5CCC5(C)C(C7=CC(=O)OC7)CCC65O)C4)OC3C)OC2C)OC1C (stereo not drawn) [β-Methyldigitoxin]
ID50 [2]: 0.40 ± 0.03 ×10^−4 mol l^−1
RM values (lipophilicity, reversed-phase thin layer chromatography) [3]: 1.71
P (partition coefficient in octanol/water system) [4]: 1300.0 ± 227.0
P (partition coefficient in octanol/water system) ([4]; listed as B-methyl digitoxin): 1300
K retentions for reversed-phase high pressure liquid chromatography [5]: 8.28

α,β-Diacetyldigoxin
ID50 [2]: 1.27 ± 0.02 ×10^−4 mol l^−1
RM values (lipophilicity, reversed-phase thin layer chromatography) [3]: 1.16
P (partition coefficient in octanol/water system) [4]: 392.0 ± 82.0
K retentions for reversed-phase high pressure liquid chromatography [5]: 4.31

α,β-Dimethyldigoxin
ID50 [2]: 1.28 ± 0.06 ×10^−4 mol l^−1
RM values (lipophilicity, reversed-phase thin layer chromatography) [3]: 0.94
P (partition coefficient in octanol/water system) [4]: 138.0 ± 12.1
K retentions for reversed-phase high pressure liquid chromatography [5]: 2.76

α-Acetyldigoxin
ID50 [2]: 2.50 ± 0.31 ×10^−4 mol l^−1
RM values (lipophilicity, reversed-phase thin layer chromatography) [3]: 0.50
P (partition coefficient in octanol/water system) [4]: 54.6 ± 7.8
K retentions for reversed-phase high pressure liquid chromatography [5]: 0.99

α-Methyldigoxin
ID50 [2]: 2.23 ± 0.11 ×10^−4 mol l^−1
RM values (lipophilicity, reversed-phase thin layer chromatography) [3]: 0.54
P (partition coefficient in octanol/water system) [4]: 56.6 ± 9.8
K retentions for reversed-phase high pressure liquid chromatography [5]: 1.13

β-Acetyldigoxin
ID50 [2]: 1.60 ± 0.02 ×10^−4 mol l^−1
RM values (lipophilicity, reversed-phase thin layer chromatography) [3]: 0.70
P (partition coefficient in octanol/water system) [4]: 99.2 ± 4.1
K retentions for reversed-phase high pressure liquid chromatography [5]: 1.25

— patent US20140187505A1, “Cardiac Glycosides to Treat Cystic Fibrosis and Other IL-8 Dependent Disorders” (priority 2002, published 2014)
